Data taken from US6288082A, “Substituted 3-cyanoquinolines” (priority 1999, dated 2001).
≈ marks a conversion by molar mass, not a printed value. Where “and” joins values, the source holds several entries; their conditions need not be identical. Equal values may be shown once.

Columns and labels:
[1] = biological target: Epithelial Cell Kinase (ECK) (Homo sapiens, UniProt P29317); assay: Inhibition of Epithelial Cell Kinase (ECK); type: biochemical; details: biotinylated peptide substrate, pH 7.2
[2] = biological target: T1, Kinase insert Domain containing Receptor (KDR) (Homo sapiens, UniProt P35968); assay: Inhibition of Kinase insert Domain containing Receptor (KDR; the catalytic domain of the VEGF receptor); type: biochemical; details: substrate E:Y 4:1, pH 7.2
T1 construct: KDR; the Catalytic Domain of the VEGF Receptor

[3] = biological target: Mitogen Activated Protein Kinase (Mek-Erk); assay: Mitogen Activated Protein Kinase (MAPK) assay, coupled Mek-Erk; type: biochemical, human; details: MBP or Myc peptide substrate, pH 7.4
Protocol: Mitogen Activated Protein Kinase (MAPK) Assay
To evaluate inhibitors of the MAP (mitogen activated protein) kinase a two component coupled standard pharmacological test procedure, which measures phosphorylation of a serine/threonine residue in an appropriate sequence in the substrate in the presence and absence of a putative inhibitor, was used. Recombinant human MEK 1 (MAPKK) was first used to activate recombinant human ERK2 (MAPK) and the activated MAPK (ERK) was incubated with substrate (MBP peptide or MYC peptide) in the presence of ATP, Mg^+2 and radiolabeled ^33 P ATP. The phosphorylated peptide was captured on a P 81 phosphocellulose filter (paper filter or embedded in microtiter plate) washed and counted by scintillation methods.
The peptide substrates used in the assay are MBP, peptide substrate ([…]), or synthetic Myc substrate, ([…]·5 TFA. The recombinant enzymes used were prepared as GST fusion proteins of human ERK 2 and human MEK 1. Inhibitor samples were prepared as 10×stocks in 10% DMSO and an appropriate aliquot was used to deliver either 10 ug/ml for a single point screening dose or 100, 10, 1, and 0.1 uM final concentration for a dose response curve. Final DMSO concentrations were less than or equal to 1%.
The reaction was run as follows in 50 mM Tris kinase buffer, pH 7.4 in a reaction volume of 50 ul. The appropriate volume of kinase buffer and inhibitor sample was added to the tube. Appropriate dilution of enzyme was delivered to give 2-5 ug recombinant MAPK (Erk ) per tube. The inhibitor was incubated with MAPK (Erk) for 30 min at 0 deg. C. Recombinant Mek (MAPKK) (0.5-2.5 ug) or fully activated Mek (0.05-0.1 units) was added to activate the Erk and incubated for 30 min at 30° C. Then substrate and gamma ^33 P ATP was were added to give a final concentration of 0.5-1 mM MBPP or 250-500 uM Myc; 0.2-0.5 uCi gamma P 33 ATP/tube; 50 μM ATP final concentration. Samples were incubated at 30° C. for 30 minutes and the reaction was stopped by adding 25 μl of ice cold 10% TCA. After samples were chilled on ice for 30 min, 20 μl of sample was transferred onto P 81 phosphocellulose filter paper or appropriate MTP with embedded P 81 filter. Filter papers or MTP were washed 2 times with a large volume of 1% acetic acid, then 2 times with water. The filters or MTP were briefly air dried before addition of scintillant and samples were counted in the appropriate scintillation counter set up for reading ^33 P isotope. Samples included a positive control (activated enzyme plus substrate); a no enzyme control; a no substrate control; samples with different concentrations of putative inhibitor; and samples with reference inhibitors (other active compounds or non-specific inhibitors such as staurosporine or K252 B).
The raw data was captured as cpm. Sample replicates were averaged and corrected for background count. Mean cpm data was tabulated by group and % inhibition by a test compound was calculated as (corrected cpm control-corrected. cpm sample/control)×100=% inhibition. […] The results obtained for representative compounds of this invention are listed in TABLE 2 where there may be separate entries for the same compound; this is an indication that the compound was evaluated more than one time.

MDA-MB-435 = assay: Inhibition of cancer cell growth as measured by cell number, MDA-MB-435; type: cell-based; details: Homo sapiens, MDA-MB-435, 48 h, MDA-MB-435, 48 hours exposure
Protocol: (§1) Inhibition of Cancer Cell Growth as Measured by Cell Number […] […] After 48 hours exposure to test compounds, cells were fixed with trichloroacetic acid, and stained with Sulforhodamine B. After washing with trichloroacetic acid, bound dye was solubilized in 10 mM Tris base and optical density was determined using plate reader. Under conditions of the assay the optical density is proportional to the number of cells in the well. […] The test procedure is described in details by Philip Skehan et. al, J.Natl. Canc. Inst., 82, 1107-1112 (1990). […] Information about some of the cell lines used in these test procedures is available from the American Type Tissue Collection: Cell Lines and Hybridomas, 1994 Reference Guide, 8th Edition.

A431 = assay: Inhibition of cancer cell growth as measured by cell number, A431; type: cell-based; details: Homo sapiens, A-431, 48 h, A431, 48 hours exposure
Protocol: as §1

SK-BR3 = assay: Inhibition of cancer cell growth as measured by cell number, SK-BR3; type: cell-based; details: Homo sapiens, SK-BR-3, 48 h, SK-BR3, 48 hours exposure
Protocol: as §1

SW620 = assay: Inhibition of cancer cell growth as measured by cell number, SW620; type: cell-based; details: Homo sapiens, SW-620, 48 h, SW620, 48 hours exposure
Protocol: as §1

3T3 = assay: Inhibition of cancer cell growth as measured by cell number, 3T3; type: cell-based; details: Mus musculus, NIH3T3; 3T3, 48 hours exposure
Protocol: as §1

3T3/c-erbb2 = assay: Inhibition of cancer cell growth as measured by cell number, 3T3/c-erbb2; type: cell-based; details: 3T3/c-erbb2, 48 hours exposure
Protocol: as §1

[4] = tested on: human colon carcinoma SW620; details: 3 mg/kg/dose IP days 1-20, Day 7
[5] = biological target: T2, Epidermal Growth Factor Receptor Kinase (EGF-R) (Homo sapiens, UniProt P00533); assay: Inhibition of Epidermal Growth Factor Receptor Kinase (EGF-R) Using Recombinant Enzyme; type: biochemical; details: for IC50: recombinant enzyme, RR-SRC peptide substrate
T2 construct: EGFR cDNA encoding amino acids 645-1186 preceded by Met-Ala-(His)6; Met-Ala-(His)6 (N); made in house; host or cells: Sf9 insect cells, recombinant baculovirus vHcEGFR52
Protocol: Inhibition of Epidermal Growth Factor Receptor Kinase (EGF-R) Using Recombinant Enzyme
Representative test compounds were evaluated for their ability to inhibit the phosphorylation of the tyrosine residue of a peptide substrate catalyzed by the enzyme epidermal growth factor receptor kinase. The peptide substrate (RR-SRC) has the sequence arg-arg-leu-ile-glu-asp-ala-glu-tyr-ala-ala-arg-gly. The enzyme used in this test procedure is the His-tagged cytoplasmic domain of EGFR. A recombinant baculovirus (vHcEGFR52) was constructed containing the EGFR cDNA encoding amino acids 645-1186 preceded by Met-Ala-(His)6. Sf9 cells in 100 mm plates were infected at an moi of 10 pfu/cell and cells were harvested 48 h post infection. A cytoplasmic extract was prepared using 1% Triton X-100 and applied to Ni-NTA column. After washing the column with 20 mM imidazole, HcEGFR was eluted with 250 mM imidazole (in 50 mM Na2 HPO4, pH 8.0, 300 mM NaCl). Fractions collected were dialyzed against 10 mM HEPES, pH 7.0, 50 mM NaCl, 10% glycerol, 1 ug/mL antipain and leupeptin and 0.1 mM Pefabloc SC. The protein was frozen in dry ice/methanol and stored -70° C.
Test compounds were made into 10 mg/mL stock solutions in 100% dimethylsulfoxide (DMSO). Prior to experiment, stock solutions were diluted to 500 uM with 100% DMSO and then serially diluted to the desired concentration with HEPES buffer (30 mM HEPES pH 7.4).
For the enzyme reaction, 10 uL of each inhibitor (at various concentrations) were added to each well of a 96-well plate. To this was added 3 uL of enzyme (1:10 dilution in 10 mM HEPES, pH 7.4 for final conc. of 1:120). This was allowed to sit for 10 min on ice and was followed by the addition of 5 ul peptide (80 uM final conc.), 10 ul of 4×Buffer (Table A), 0.25 uL ^33 P-ATP and 12 uL H2 O. The reaction was allowed to run for 90 min at room temperature and was followed by spotting the entire volume on to precut P81 filter papers. The filter discs were washed 2× with 0.5% phosphoric acid and radioactivity was measured using a liquid scintillation counter. […]
The inhibition data for representative compounds of the invention are shown below in TABLE 1. […] The % inhibition of the test compound was determined for at least three different concentrations and the IC50 value was evaluated from the dose response curve. The % inhibition was evaluated with the following formula: […]
where CPM(drug) is in units of counts per minute and is a number expressing the amount of radiolabled ATP (γ-^33 P) incorporated onto the RR-SRC peptide substrate by the enzyme after 90 minutes at room temperature in the presence of test compound as measured by liquid scintillation counting. CPM(control) is in units of counts per minute and was a number expressing the amount of radiolabled ATP (γ-^33 P) incorporated into the RR-SRC peptide substrate by the enzyme after 90 minutes at room temperature in the absence of test compound as measured by liquid scintillation counting. The CPM values were corrected for the background counts produced by ATP in the absence of the enzymatic reaction.

Chain of Epithelial Cell Kinase (ECK) (P29317 24-976): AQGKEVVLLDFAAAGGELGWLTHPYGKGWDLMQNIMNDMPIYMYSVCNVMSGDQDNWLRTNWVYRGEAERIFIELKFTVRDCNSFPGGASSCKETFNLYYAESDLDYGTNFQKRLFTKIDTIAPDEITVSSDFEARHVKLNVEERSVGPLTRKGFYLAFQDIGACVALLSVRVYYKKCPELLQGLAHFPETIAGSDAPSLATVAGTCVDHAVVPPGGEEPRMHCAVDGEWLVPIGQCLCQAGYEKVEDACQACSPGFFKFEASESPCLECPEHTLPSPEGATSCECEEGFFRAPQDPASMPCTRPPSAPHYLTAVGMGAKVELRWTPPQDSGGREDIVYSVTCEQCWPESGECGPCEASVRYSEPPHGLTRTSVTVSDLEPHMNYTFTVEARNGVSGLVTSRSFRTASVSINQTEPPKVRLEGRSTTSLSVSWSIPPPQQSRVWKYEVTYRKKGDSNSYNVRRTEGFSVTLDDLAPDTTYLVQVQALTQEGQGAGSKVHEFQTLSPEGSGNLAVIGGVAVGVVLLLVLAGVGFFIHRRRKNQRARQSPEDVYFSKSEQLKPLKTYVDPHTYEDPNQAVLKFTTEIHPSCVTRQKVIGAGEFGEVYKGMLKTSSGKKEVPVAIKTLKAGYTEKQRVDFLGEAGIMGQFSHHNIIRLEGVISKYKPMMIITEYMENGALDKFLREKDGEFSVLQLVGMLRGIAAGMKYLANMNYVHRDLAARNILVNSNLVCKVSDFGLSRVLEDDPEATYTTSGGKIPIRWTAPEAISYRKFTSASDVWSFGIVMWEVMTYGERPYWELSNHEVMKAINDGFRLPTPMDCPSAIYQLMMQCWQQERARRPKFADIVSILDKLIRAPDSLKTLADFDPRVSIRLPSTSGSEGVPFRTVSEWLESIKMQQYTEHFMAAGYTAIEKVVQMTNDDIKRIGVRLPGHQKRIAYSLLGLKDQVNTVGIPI
T2 sequence (P00533 669-1210): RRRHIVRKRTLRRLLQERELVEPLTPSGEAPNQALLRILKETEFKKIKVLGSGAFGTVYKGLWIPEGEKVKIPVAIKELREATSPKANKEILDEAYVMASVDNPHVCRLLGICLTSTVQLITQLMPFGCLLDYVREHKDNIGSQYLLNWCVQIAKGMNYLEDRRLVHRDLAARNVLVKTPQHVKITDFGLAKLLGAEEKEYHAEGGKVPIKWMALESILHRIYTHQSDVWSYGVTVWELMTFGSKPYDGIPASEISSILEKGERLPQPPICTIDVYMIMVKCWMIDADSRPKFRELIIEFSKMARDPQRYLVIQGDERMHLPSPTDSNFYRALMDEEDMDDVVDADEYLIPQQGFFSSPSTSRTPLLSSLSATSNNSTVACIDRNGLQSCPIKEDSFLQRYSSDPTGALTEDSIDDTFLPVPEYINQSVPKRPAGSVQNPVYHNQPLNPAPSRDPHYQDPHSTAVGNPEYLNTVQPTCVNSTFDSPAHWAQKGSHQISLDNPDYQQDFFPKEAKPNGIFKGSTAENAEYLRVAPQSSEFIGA
T1 sequence (P35968 834-1162 limits assumed): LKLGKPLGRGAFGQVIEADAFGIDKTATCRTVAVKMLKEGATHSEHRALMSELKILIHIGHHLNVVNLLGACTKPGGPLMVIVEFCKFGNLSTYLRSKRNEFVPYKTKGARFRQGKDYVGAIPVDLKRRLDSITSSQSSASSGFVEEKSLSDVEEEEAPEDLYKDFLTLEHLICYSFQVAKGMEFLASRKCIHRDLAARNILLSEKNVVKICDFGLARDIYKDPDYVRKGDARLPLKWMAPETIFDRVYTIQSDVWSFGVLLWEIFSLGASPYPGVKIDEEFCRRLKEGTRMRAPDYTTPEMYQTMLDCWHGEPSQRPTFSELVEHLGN

Row | IC50 [1] | IC50 [2] [µM] | IC50 [3] | IC50 [5] [µM] | Compound | IC50 (3T3/c-erbb2) [µg/mL] | also measured
1 | 0.155 µM and 0.036 µM | > 77.4 | > 100 µM and 50 µM | – | CCOc1cc2ncc(C#N)c(Nc3ccc4c(c3)CCC4=O)c2cc1OCC [Example 110, 6,7-Diethoxy-4-(1-oxo-indan-5-ylamino)-quinoline-3-carbonitrile] | 0.0311 (≈ 0.0803 µM) | IC50 (MDA-MB-435): 0.028 µg/mL (≈ 0.0723 µM); IC50 (A431): 0.0244 µg/mL (≈ 0.063 µM); IC50 (SK-BR3): 0.0281 µg/mL (≈ 0.0725 µM); IC50 (SW620): 0.0181 µg/mL (≈ 0.0467 µM); IC50 (3T3): 0.0923 µg/mL (≈ 0.238 µM)
2 | – | – | – | – | CCOc1cc2ncc(C#N)c(Nc3ccc4c(c3)CCC4)c2cc1OCC [Example 108, 6,7-Diethoxy-4-(indan-5-ylamino)-quinoline-3-carbonitrile] | 0.198 (≈ 0.53 µM) | –
3 | – | – | – | – | CCOc1cc2ncc(C#N)c(Nc3ccc4cn[nH]c4c3)c2cc1OCC [Example 99, 6,7-Diethoxy-4-(1H-indazol-6-ylamino)-quinoline-3-carbonitrile] | – | Relative Tumor Growth Day 7 [4]: 3.80
4 | – | – | 25 µM | > 0.5 | CCOc1cc2ncc(C#N)c(Nc3ccc4cn[nH]c4c3)c2cc1OC [Example 115, 7-Ethoxy-4-(indazol-6-ylamino)-6-methoxy-quinoline-3-carbonitrile] | – | –
5 | – | – | > 100 µM | > 1 | CCOc1cc2ncc(C#N)c(Nc3ccc4c(c3)C(=O)NCC(=O)N4C)c2cc1OCC [Example 127, 6,7-Diethoxy-4-(1-methyl-2,5-dioxo-2,3,4,5-tetrahydro-1H-benzo[e][1,4]diazepin-7-ylamino)-quinoline-3-carbonitrile] | – | –
6 | – | – | – | > 1 | CCOc1cc2ncc(C#N)c(Nc3ccc4cc[nH]c4c3)c2cc1OCC [Example 101, 6,7-Diethoxy-4-(1H-indol-6-ylamino)-quinoline-3-carbonitrile] | – | –
7 | – | 2.65 | – | – | CCOc1cc2ncc(C#N)c(Nc3ccc4c(c3)OCO4)c2cc1OCC [Example 98, 4-(Benzo[1,3]dioxol-5-ylamino)-6,7-diethoxy-quinoline-3-carbonitrile] | – | –
8 | > 51.1 µM | 76.6 | – | – | CCOc1cc2ncc(C#N)c(Nc3ccc4c(c3)OCCO4)c2cc1OCC [Example 105, 4-(2,3-Dihydro-benzo[1,4]dioxin-6-ylamino)-6,7-diethoxy-quinoline-3-carbonitrile] | 0.375 (≈ 0.958 µM) | IC50 (MDA-MB-435): 0.235 µg/mL (≈ 0.6 µM); IC50 (A431): 0.27 µg/mL (≈ 0.69 µM); IC50 (SK-BR3): 0.281 µg/mL (≈ 0.718 µM); IC50 (SW620): 0.411 µg/mL (≈ 1.05 µM); IC50 (3T3): 0.853 µg/mL (≈ 2.18 µM)
9 | – | – | > 100 µM | > 1 | CCOc1cc2ncc(C#N)c(Nc3ccc4c(c3)C(=O)OC4)c2cc1OCC [Example 111, 6,7-Diethoxy-4-(3-oxo-1,3-dihydro-isobenzofuran-5-ylamino)-quinoline-3-carbonitrile] | – | –

Row | Compound | IC50 [1] | IC50 [2] [µM] | IC50 [3] | IC50 [5] [µM] | IC50 (3T3/c-erbb2) [µg/mL] | also measured
10 | CCOc1cc2ncc(C#N)c(Nc3ccc4c(c3)NCC4)c2cc1OCC [Example 96, 4-(2,3-Dihydro-1H-indol-6-ylamino)-6,7-diethoxy-quinoline-3-carbonitrile] | > 53.5 µM | 8.02 | – | > 10 | – | inhibition at 0.5 µM ([5]; read-out: % Inh @ 0.5 μM): 6%
